This note sets out measurements from PubChem BioAssay (NCI).

Where “and” joins values, the source holds several entries; their conditions need not be identical. Equal values may be shown once.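 Assay format: 96-well plates, 48-hour exposure. GI50: concentration for 50% inhibition of growth. The concentration for full growth arrest is given as TGI.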

Among the test systems are HCT-116 colon; M14 melanoma; MALME-3M melanoma; NCI-H522 lung; OVCAR-5 ovarian; OVCAR-8 ovarian; RXF 393 renal; SF-295 CNS; SNB-75 CNS; SR leukemia.
What all share (experiment): NCI anticancer screen, dose series, 48 h

Regarding `CC(=O)c1cc(C(=O)c2ccc3c(c2)Sc2ccccc2N3)c2c(C)cc(C)cn12`, the GI50 was 0.263 µM in the assay on HCT-116 colon; 0.253 µM in the assay on M14 melanoma; 5.73 µM in the assay on MALME-3M melanoma; 0.16 µM with NCI-H522 lung; 0.794 µM in the assay with OVCAR-5 ovarian; 0.405 µM with OVCAR-8 ovarian. Also, the GI50 with RXF 393 renal is 0.162 µM; in the assay with SF-295 CNS, 0.187 µM; in the assay with SNB-75 CNS, 0.171 µM; in the assay on SR leukemia it was 0.302 µM. Further, the TGI is over 100 µM with HCT-116 colon; over 100 µM with M14 melanoma; over 100 µM with MALME-3M melanoma; 1.08 µM with NCI-H522 lung; over 100 µM in the assay on OVCAR-5 ovarian; over 100 µM with OVCAR-8 ovarian. The TGI in the assay with RXF 393 renal is 0.699 µM; in the assay with SF-295 CNS, 0.94 µM; with SNB-75 CNS, 1.5 µM; with SR leukemia it was over 100 µM.

Turning to `O=C1CCC2CC(C(=O)c3ccccc3)CCC2CN1` (stereo not given) (tested in a mixture with another compound), the TGI in the assay with HCT-116 colon, in the assay with M14 melanoma, in the assay with MALME-3M melanoma, with NCI-H522 lung, in the assay with OVCAR-5 ovarian and in the assay on OVCAR-8 ovarian was over 100 µM in each case. Further, the TGI in the assay on RXF 393 renal, in the assay with SF-295 CNS, with SNB-75 CNS and in the assay with SR leukemia was over 100 µM each time.

`COc1ccc2cc(-c3cc4c(oc3=O)-c3ccccc3OC4O)c(=O)oc2c1` (stereo not given): the GI50 is 20.2 µM in the assay on HCT-116 colon; 22.1 µM with M14 melanoma; 19.3 µM in the assay with MALME-3M melanoma; 17 µM with NCI-H522 lung; 17.3 µM in the assay on OVCAR-5 ovarian; 17.5 µM with OVCAR-8 ovarian. The GI50 in the assay on RXF 393 renal was 18.7 µM; with SNB-75 CNS it was 5.73 µM; in the assay on SR leukemia it was 79.7 µM. Besides, the TGI with HCT-116 colon turned out to be 34.7 µM; with M14 melanoma, 43.8 µM; in the assay on MALME-3M melanoma, 36.8 µM; with NCI-H522 lung it was 37.6 µM; in the assay on OVCAR-5 ovarian, 31.3 µM; in the assay on OVCAR-8 ovarian, 35.3 µM. Also, the TGI in the assay on RXF 393 renal was 36.4 µM; with SF-295 CNS it was 15.3 µM; in the assay with SNB-75 CNS, 23.4 µM; with SR leukemia, over 100 µM.

For `Nc1nc(OCc2cc(Br)cs2)c2[nH]cnc2n1`, the GI50 in the assay with HCT-116 colon was 19.9 µM; with M14 melanoma, 26.7 µM; in the assay on MALME-3M melanoma, 17.6 µM; in the assay with NCI-H522 lung, 26.8 µM; with OVCAR-5 ovarian, 29.8 µM; in the assay with OVCAR-8 ovarian it was 33.3 µM. Moreover, the GI50 was 14 µM in the assay with RXF 393 renal, 25.9 µM with SF-295 CNS, 15.7 µM with SNB-75 CNS and 29.5 µM in the assay with SR leukemia. Also, the TGI with HCT-116 colon was over 100 µM; in the assay with M14 melanoma, over 100 µM; in the assay with MALME-3M melanoma, 97.5 µM; with NCI-H522 lung it was over 100 µM; in the assay on OVCAR-5 ovarian, over 100 µM; in the assay with OVCAR-8 ovarian it was over 100 µM. For the same compound, the TGI with RXF 393 renal is 55.5 µM; in the assay with SF-295 CNS, over 100 µM; in the assay with SNB-75 CNS, 90.2 µM; in the assay on SR leukemia, over 100 µM.

On to `NC(=O)c1ccc(NN=O)nc1`, for which the TGI in the assay with HCT-116 colon, in the assay with M14 melanoma, in the assay with MALME-3M melanoma, with NCI-H522 lung, in the assay on OVCAR-5 ovarian and with OVCAR-8 ovarian was over 100 µM in each case. The TGI with RXF 393 renal, in the assay with SF-295 CNS, in the assay on SNB-75 CNS and with SR leukemia was over 100 µM in each case. In the assay on RXF 393 renal, the GI50 was over 100 µM.

On to `C[C@]12CC[C@H](O)C[C@H]1CC[C@@H]1[C@@H]2CC[C@]2(C)[C@@H](C3=CC(=O)OC3)[C@@H](O)C[C@]12O`, for which the TGI in the assay with HCT-116 colon stood at 4.37 µM; with M14 melanoma it was 5.58 µM; with MALME-3M melanoma, 4.23 µM; in the assay on NCI-H522 lung, 2.67 µM; in the assay on OVCAR-5 ovarian it was 8.03 µM; in the assay with OVCAR-8 ovarian, 14.6 µM. For the same compound, the TGI with RXF 393 renal amounted to 3.51 µM; in the assay on SF-295 CNS, 10.9 µM; in the assay with SNB-75 CNS, 16.7 µM; in the assay on SR leukemia it was 3.63 µM.

On to `CC1C[C@H](C)CC(C(O)CC2CC(=O)N(Cc3ccccc3)C(=O)C2)C1O` (stereo not given in full), for which the TGI in the assay on HCT-116 colon, in the assay on M14 melanoma, with MALME-3M melanoma, with NCI-H522 lung, with OVCAR-5 ovarian and in the assay with OVCAR-8 ovarian was over 100 µM each time. The TGI in the assay on RXF 393 renal, in the assay on SF-295 CNS, in the assay on SNB-75 CNS and with SR leukemia was over 100 µM each time.

Consider `CCOC(=O)n1cc(C2=C(c3cn(C)c4ccccc34)COC2=O)c2ccccc21`, for which the GI50 in the assay with HCT-116 colon is 0.0515 µM; with M14 melanoma it was 0.0478 µM; in the assay with MALME-3M melanoma, 0.0508 µM; with NCI-H522 lung, 0.0278 µM; in the assay on OVCAR-5 ovarian, 0.462 µM; with OVCAR-8 ovarian, 0.312 µM. Further, the GI50 in the assay with RXF 393 renal is 0.0356 µM; in the assay with SF-295 CNS, 0.0464 µM; in the assay on SNB-75 CNS, 0.0248 µM; in the assay on SR leukemia, 0.0449 µM. For the same compound, the TGI in the assay on HCT-116 colon is 16.8 µM; in the assay on M14 melanoma, over 100 µM; with MALME-3M melanoma it was over 100 µM; in the assay on NCI-H522 lung it was 1.02 µM; with OVCAR-5 ovarian, over 100 µM; in the assay on OVCAR-8 ovarian, over 100 µM. Also, the TGI in the assay with RXF 393 renal came to 0.377 µM; in the assay on SF-295 CNS, 11 µM; in the assay on SNB-75 CNS, 1.22 µM; in the assay on SR leukemia, 16.4 µM.

Take `CCOC(=O)CSC(=O)NCCCl`: the TGI in the assay on HCT-116 colon, in the assay on M14 melanoma, in the assay on MALME-3M melanoma, with NCI-H522 lung, in the assay on OVCAR-5 ovarian and with OVCAR-8 ovarian was over 100 µM in each case. In addition, the TGI in the assay on RXF 393 renal, with SF-295 CNS, in the assay on SNB-75 CNS and with SR leukemia was over 100 µM each time. The GI50 with SR leukemia was over 100 µM.

Turning to `C=CC(=O)NCc1cccc(Nc2ncc(Br)c(NCCCNC(=O)C3CCC3)n2)c1`, the GI50 with HCT-116 colon was 1.75 µM and 0.603 µM; in the assay on M14 melanoma it was 1.86 µM and 1.19 µM; in the assay on MALME-3M melanoma, 1.62 µM and 1.68 µM; in the assay on OVCAR-5 ovarian, 0.709 µM and 2.56 µM; with OVCAR-8 ovarian it was 1.99 µM and 1.72 µM; with RXF 393 renal, 0.166 µM and 0.123 µM. The GI50 is 1.1 µM and 1.32 µM in the assay on SF-295 CNS; 0.113 µM and 0.0839 µM with SNB-75 CNS; 0.394 µM in the assay with SR leukemia. The TGI was 12.5 µM and 14.3 µM in the assay with HCT-116 colon; 10.2 µM and 5.91 µM in the assay on M14 melanoma; 5.78 µM and 6.56 µM with MALME-3M melanoma; 12.2 µM and 5.52 µM with NCI-H522 lung; 12.5 µM and 15.6 µM with OVCAR-5 ovarian; 12.5 µM and > 25 µM in the assay on OVCAR-8 ovarian. For the same compound, the TGI is 0.844 µM and 0.468 µM with RXF 393 renal; 8.36 µM and 16.8 µM in the assay with SF-295 CNS; 0.637 µM and 1.02 µM with SNB-75 CNS; 12.5 µM with SR leukemia.
